Experimental data from patent US10253002B2, “Compounds and methods of treating infections” (Neoculi Pty Ltd., priority 2013, dated 2019).
Values after ≈ are worked out from the molar mass of the structure shown. Read-outs that look alike come from different tables or passages of the source.

Legend:
[1] = tested on: protein synthesis in S. aureus ATCC 29213; assay: Macromolecular synthesis assay: protein synthesis ([3H] leucine); assay type: cell-based, Staphylococcus aureus; settings: at the MIC
Description: (§1) Cells were grown at 35° C. overnight on Trypticase Soy agar. A colony from the plate was used to inoculate 10 ml of Mueller Hinton broth II (MHBII), and the culture was grown to early exponential growth phase (OD600==0.2 to 0.3) while incubating in a shaker at 35° C. and 200 rpm.
When cells reached early exponential phase, 100 μL of culture was added to triplicate wells containing various concentrations of test compound or control antibiotics (5 μL) at 20× the final concentration in 100% DMSO. A 5% DMSO treated culture served as the “no drug” control for all experiments. Cells were added in MHBII at 105% to account for the volume of drug added to each reaction or in M9 minimal medium for protein synthesis reactions. Following 15 min incubation at room temperature, either [^3H] thymidine (DNA synthesis), [^3H] uridine (RNA synthesis) or [^3H] leucine (protein synthesis) was added at 0.5-1.0 μCi per reaction, depending on the experiment. Reactions were allowed to proceed at room temperature for 15-30 min and then stopped by adding 12 μL of cold 5% trichloroacetic acid (TCA) or 5% TCA/2% casamino acids (protein synthesis only). […] After washing three times with 5 ml of cold 5% TCA, the filters were rinsed two times with 5 mL 100% ethanol, allowed to dry, and then counted using a Beckman LS3801 liquid scintillation counter.

[2] = tested on: cell wall synthesis in S. aureus ATCC 29213; assay: Macromolecular synthesis assay: cell wall synthesis ([14C]N-acetylglucosamine); assay type: cell-based, Staphylococcus aureus
Description: as §1
Bacterial cells in early exponential growth phase were transferred to M9 minimal medium and added to 1.5 mL eppendorf tubes (100 μL/tube) containing various concentrations of test compound or control antibiotics (5 μL) at 20× the final concentration in 100% DMSO as described above. Following a 5 min incubation at 37° C., [^14C]N-acetylglucosamine (0.4 μCi/reaction) was added to each tube and incubated for 45 min in a 37° C. heating block. Reactions were stopped through the addition of 100 μL of 8% SDS to each tube. Reactions were then heated at 95° C. for 30 min in a heating block, cooled, briefly centrifuged, and spotted onto pre-wet HA filters ([…]). After washing three times with 5 mL of 0.1% SDS, the filters were rinsed two times with 5 ml of deionized water, allowed to dry, and then counted using a Beckman LS3801 liquid scintillation counter.

[3] = tested on: S. pneumoniae strain D39; assay: MBC time kill studies (relative MBC at time points); assay type: cell-based, Streptococcus pneumoniae; settings: within 5 h
Excerpt: MBC kill kinetics assays involved the preparation of three 96 well microtitre trays.

[4] = tested on: D39 cell membrane ultra-structure; assay: Transmission electron microscopy morphometric analysis; assay type: cell-based, Streptococcus pneumoniae
Description: Morphological appearance and morphometric analysis of the cell membrane was determined using transmission electron microscopy (TEM). Bacterial suspensions and 10 mL cultures of […] were prepared as before. […] Critical time points for TEM work were determined by analysing trends in the growth curves produced from the kill kinetics studies. […] Samples were fixed using modified protocols defined by a previous study examining cell wall ultrastructure of S. pneumoniae ([…]. et al. 2005. Infect Immun 73:4653-4667). […] The samples were then embedded in fresh LR White resin and incubated at 50° C. for 48 h. Sections were cut to 1 μm using a glass knife, stained with Toluidene Blue and viewed under a light microcrope at 400× to identify the presence of stained pneumococci. At least four ultra-thin sections were then cut to 90 nm using a diamond knife and placed on matrix grids, one section per grid. […] Stained sections were then placed on grids and viewed between 25000× and 130000× on a Philips CM100 Transmission Electron Microscope. Images were obtained at 130000× magnification and analysed using analySIS [Olympus Soft Imaging Systems].

[5] = water containing 4% DMSO, following initial dilution in 100% DMSO; recent independent research; cited from earlier work
[6] = tested on: S. pneumoniae isolates; assay: MBC, Example 5; assay type: cell-based, Streptococcus pneumoniae
Description: [Micro-broth dilutions and 96 well trays are prepared by the following method: 90 μL of 4% LHB:CAMHB is aliquotted into all wells using a multichannel pipette. 90 μL of working antimicrobial stocks were no serial diluted down the tray by a 1:2 dilution. Negative broth controls and dilution control were taken into account when planning the set up of a 96 well tray.] 10 μL of bacterial suspension was then added to the appropriate wells in the 96 well tray. Appropriate positive (no antimicrobial), negative (no antimicrobial or bacteria) and negative dilution (a serial dilution control of antimicrobial and broth) controls were included in each assay. […] The MBC was determined by a 99.95% inhibition of S. pneumoniae, taking into account the dilution factor. MICs and MBCs were determined in quadruplicate and the mode was taken as the representative value. The MIC50, MIC90 and MIC range and MBC50, MBC90 and MBC range were determined according to CLSI standards. The MIC50 and MIC90, or MBC50 and MBC90, are defined by the lowest concentrations which, when all the MICs and MBCs of the isolates are arranged from lowest to highest, inhibited the 50th and 90th percentile of the total amount of isolates, respectively.

[7] = control strain Enterococcus faecalis ATCC 29212; cited from earlier work

With N=C(N/N=C/c1ccc(Cl)cc1)N/N=C/c1ccc(Cl)cc1 [NCL812, 1,3-bis[(E)-(4-chlorophenyl)methyleneamino]guanidine] the “inhibition of protein synthesis” value [1] was “up to 97%”, the “inhibition of cell wall synthesis” value ([2]; 4 fold the MIC) was “approximately 68%” and the “inhibition of cell wall synthesis” value ([2]; 8 fold the MIC) was about 52%. The “decrease in MBC” value [3] was about 3 fold, the cell membrane thickness ([4]; D39 exposed to 16 μg/mL NCL812 for 6 h, untreated 4.35±0.24) was 6.43±0.29 nm and the “width of periplasmic space” value ([4]; D39 treated with 16 μg/mL NCL812 for 6 h, untreated 3.91±0.14) was 4.54±0.096 nm. The “Periplasmic space, Mean ± SEM” value ([4]; D39 treated with 16 μg/ml NCL812 for 6 h, n = 11, growth control 3.91 ± 0.14 nm) was 4.54 ± 0.096 nm,, the “Cell membrane, Mean ± SEM” value ([4]; D39 treated with 16 μg/ml NCL812 for 6 h, n = 13, growth control 4.35 ± 0.24 nm) was 6.43 ± 0.29 nm, and the solubility [5] was “complete solubility”.

Molecule CC1(C)S[C@@H]2[C@H](NC(=O)[C@H](N)c3ccccc3)C(=O)N2[C@H]1C(=O)O [Ampicillin] has an MBC ([6]; Streptococcus pneumoniae, isolate P21, Table 22, CAMHB diluent for NCL062, read-out: MBC) of 0.045 mg/L (≈ 0.129 µM), an MBC ([6]; Streptococcus pneumoniae, isolate WCH57, Table 22, CAMHB diluent for NCL062, read-out: MBC) of 0.09 mg/L (≈ 0.258 µM) and an MBC ([6]; Streptococcus pneumoniae, isolate WCH158, Table 22, CAMHB diluent for NCL062, read-out: MBC) of 0.022 mg/L (≈ 0.063 µM). The MBC ([6]; Streptococcus pneumoniae, pneumococcal isolate A66.1, read-out: MBC) was 0.045 mg/L (≈ 0.129 µM), the MBC ([6]; Streptococcus pneumoniae, pneumococcal isolate D39, read-out: MBC) was 0.023 mg/L (≈ 0.0658 µM) and the MBC ([6]; Streptococcus pneumoniae, pneumococcal isolate EF3030, read-out: MBC) was 0.023 mg/L (≈ 0.0658 µM). For the same molecule, the MBC ([6]; Streptococcus pneumoniae, pneumococcal isolate L82016, read-out: MBC) was 0.023 mg/L (≈ 0.0658 µM), the MBC ([6]; Streptococcus pneumoniae, pneumococcal isolate P9, read-out: MBC) was 0.023 mg/L (≈ 0.0658 µM) and the MBC ([6]; Streptococcus pneumoniae, pneumococcal isolate P21, read-out: MBC) was 0.023 mg/L (≈ 0.0658 µM). For the same molecule, the MBC ([6]; Streptococcus pneumoniae, pneumococcal isolate TIGR4, read-out: MBC) was 0.023 mg/L (≈ 0.0658 µM), the MBC ([6]; Streptococcus pneumoniae, pneumococcal isolate WCH43, read-out: MBC) was 0.023 mg/L (≈ 0.0658 µM) and the MBC ([6]; Streptococcus pneumoniae, pneumococcal isolate WCH46, read-out: MBC) was 0.045 mg/L (≈ 0.129 µM). The MBC ([6]; Streptococcus pneumoniae, pneumococcal isolate WCH57, read-out: MBC) was 0.023 mg/L (≈ 0.0658 µM), the MBC ([6]; Streptococcus pneumoniae, pneumococcal isolate WCH77, read-out: MBC) was 0.023 mg/L (≈ 0.0658 µM) and the MBC ([6]; Streptococcus pneumoniae, pneumococcal isolate WCH86, read-out: MBC) was 0.023 mg/L (≈ 0.0658 µM). It also gave an MBC ([6]; Streptococcus pneumoniae, pneumococcal isolate WCH89, read-out: MBC) of 0.023 mg/L (≈ 0.0658 µM), an MBC ([6]; Streptococcus pneumoniae, pneumococcal isolate WCH92, read-out: MBC) of 0.09 mg/L (≈ 0.258 µM) and an MBC ([6]; Streptococcus pneumoniae, pneumococcal isolate WCH137, read-out: MBC) of 0.023 mg/L (≈ 0.0658 µM). The MBC ([6]; Streptococcus pneumoniae, pneumococcal isolate WCH158, read-out: MBC) was 0.023 mg/L (≈ 0.0658 µM), the MBC ([6]; Streptococcus pneumoniae, pneumococcal isolate WCH184, read-out: MBC) was 0.045 mg/L (≈ 0.129 µM) and the MBC ([6]; Streptococcus pneumoniae, pneumococcal isolate WCH211, read-out: MBC) was 0.023 mg/L (≈ 0.0658 µM). The MBC ([6]; Streptococcus pneumoniae, pneumococcal isolate WU2, read-out: MBC) was 0.023 mg/L (≈ 0.0658 µM), the MBC ([6]; Streptococcus pneumoniae, all S. pneumoniae isolates, read-out: MBC50) was 0.023 mg/L (≈ 0.0658 µM) and the MBC ([6]; Streptococcus pneumoniae, all S. pneumoniae isolates, read-out: MBC90) was 0.023 mg/L (≈ 0.0658 µM). The “MBC Range” value ([6]; all S. pneumoniae isolates) was 0.011 to 0.09 mg/L, the MBC ([6]; pneumococcal isolate WCH16) was “Autolysis” and the “Acceptable MIC range for Ampicillin” value [7] was 0.5 to 2 mg/L.
